Experimental findings from paper PMC7874188, “Mucoromycotina Fungi Possess the Ability to Utilize Plant Sucrose as a Carbon Source: Evidence From Gongronella sp. w5” (Frontiers in Microbiology, 2021) are described below.

The assay has as its system T1, GspInv.
T1 construct: native, purified from w5 mycelia cytoplasm (High Q, Sephacryl S100); untagged
Put plainly: invertase hydrolysis kinetics, […] substrate. The conditions noted are these: pH 5.0 citrate-Na2HPO4, optimal temperature; constant printed only as "substrate affinity". It counts as biochemical, Gongronella sp. w5.

What is called Km is the substrate concentration at which the rate is half of its maximum.

Consider `OC[C@H]1O[C@@](CO)(O[C@H]2O[C@H](CO)[C@@H](O)[C@H](O)[C@H]2O)[C@@H](O)[C@@H]1O` [sucrose], for which the Km stood at 3.1 mM.
